This is an account of results in ChEMBL document CHEMBL1145510, “SCO-1, a novel plasmid-mediated class A beta-lactamase with carbenicillinase characteristics from Escherichia coli” (Antimicrob Agents Chemother, 2007).

In brackets after ≈: the same amount, converted by molar mass.

Test [1] has as its system Escherichia coli. The test is described as follows: Antibacterial activity against Escherichia coli DH5-alpha by agar dilution technique. It is filed as functional. The note with it: DH5alpha. On the technique in general: Agar dilution tests growth on a series of plates holding different concentrations.
Test [2] relates to Escherichia coli. Kind of test: Antibacterial activity against Escherichia coli DH5-alpha carrying pSCO1 encoding SCO1 by agar dilution technique. It is filed as functional. As to conditions: DH5alpha.
Test [3] concerns Escherichia coli. Kind of test: Antibacterial activity against Escherichia coli K12 carrying pR3521 encoding SCO1 by agar dilution technique. The class given is functional.
Test [4] has as its target T1, Beta-lactamase SCO-1 (Escherichia coli) (UniProt A1E3K9).
T1 sequence (whole entry): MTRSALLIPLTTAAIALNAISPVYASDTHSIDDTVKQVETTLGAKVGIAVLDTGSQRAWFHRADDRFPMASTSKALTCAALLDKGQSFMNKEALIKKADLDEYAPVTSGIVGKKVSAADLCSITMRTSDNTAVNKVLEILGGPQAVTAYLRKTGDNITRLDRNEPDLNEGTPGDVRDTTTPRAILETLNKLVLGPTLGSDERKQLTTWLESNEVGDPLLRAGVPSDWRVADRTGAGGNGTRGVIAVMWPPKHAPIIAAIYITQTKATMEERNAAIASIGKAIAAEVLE
Kind of test: Activity of Escherichia coli beta-lactamase SCO1 relative to penicillin G.

Test [5] deals with Escherichia coli. Kind of test: Activity of Escherichia coli K12 beta-lactamase CARB1 relative to penicillin G.
The target in test [6] is Beta-lactamase TEM (Escherichia coli) (UniProt P62593). Kind of test: Activity of Escherichia coli K12 beta-lactamase TEM1 relative to penicillin G.
Sequence of Beta-lactamase TEM (Escherichia coli) (P62593 whole entry): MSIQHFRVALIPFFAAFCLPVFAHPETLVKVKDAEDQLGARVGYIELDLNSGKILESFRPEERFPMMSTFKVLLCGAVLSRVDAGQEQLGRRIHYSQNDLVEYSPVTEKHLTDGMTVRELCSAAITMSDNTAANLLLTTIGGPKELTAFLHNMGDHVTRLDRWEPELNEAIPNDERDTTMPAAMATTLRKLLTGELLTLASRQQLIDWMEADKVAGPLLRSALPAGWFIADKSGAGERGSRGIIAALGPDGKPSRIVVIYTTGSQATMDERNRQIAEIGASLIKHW
Test [7] in a line: Inhibition of Escherichia coli K12 CARB1.
Test [8] concerns Escherichia coli. The test is described as follows: Antibacterial activity against Escherichia coli 3521r carrying pR352 encoding SCO1 by agar dilution technique. The class given is functional.
Test [9] has as its target Beta-lactamase TEM (Escherichia coli) (UniProt P62593). Kind of test: Inhibition of Escherichia coli TEM1.

A word on the MIC: it is the lowest concentration found to suppress growth. The low end stands for greater potency, the high end for weaker potency. `CO/N=C(\C(=O)N[C@@H]1C(=O)N2C(C(=O)[O-])=C(C[N+]3(C)CCCC3)CS[C@H]12)c1csc(N)n1`: the values for the MIC in the test on Escherichia coli [1], in the test on Escherichia coli [2] and in the test on Escherichia coli [3] were ≤ 0.12 µg/mL, ≤ 0.12 µg/mL and 0.25 µg/mL (≈ 0.52 µM), respectively.

Take `CC1(C)S[C@@H]2[C@H](NC(=O)[C@H](N)c3ccccc3)C(=O)N2[C@H]1C(=O)O`: in test [4], the Activity is 84.

As for `Cc1onc(-c2ccccc2)c1C(=O)N[C@@H]1C(=O)N2[C@@H]1SC(C)(C)[C@@H]2C(=O)O`, the Activity in [4] came out at 4; in the test with Escherichia coli [5], 12.

Take `O=C(Cc1cccs1)N[C@@H]1C(=O)N2C(C(=O)[O-])=C(C[n+]3ccccc3)CS[C@H]12`: the Activity stood at 21 in [4], 15 with Escherichia coli [5] and 154 in test [6].

What is called IC50 is the concentration at which inhibition is half-maximal. The low end stands for inhibition by little substance, the high end for a need for much substance. `CC1(C)C(C(=O)O)N2C(=O)C[C@H]2S1(=O)=O` (single isomer, unassigned) [SULBACTAM]: the IC50 in test [7] stood at 5000 nM. That is a single-digit micromolar value.

As for `CC1(C)S[C@@H]2[C@H](NC(=O)[C@H](N)c3ccc(O)cc3)C(=O)N2[C@H]1C(=O)O` [AMOXICILLIN], the MIC in the test with Escherichia coli [1] was 4 µg/mL (≈ 10.9 µM); against Escherichia coli [2], ≥ 256 µg/mL; with Escherichia coli [3] it was ≥ 256 µg/mL; in the test with Escherichia coli [8], ≥ 256 µg/mL. In addition, the Activity in the test on Escherichia coli [5] turned out to be 100; in test [6], 108.

As for `C[C@H]1[C@H](NC(=O)/C(=N\OC(C)(C)C(=O)O)c2csc(N)n2)C(=O)N1S(=O)(=O)O` [AZTREONAM], the MIC is ≤ 0.12 µg/mL with Escherichia coli [1], ≤ 0.12 µg/mL in the test with Escherichia coli [2], 1 µg/mL (≈ 2.3 µM) with Escherichia coli [3] and 1 µg/mL (≈ 2.3 µM) against Escherichia coli [8].

For `CC1(C)S[C@@H]2[C@H](NC(=O)C(C(=O)O)c3ccccc3)C(=O)N2[C@H]1C(=O)O` (some centres undefined) [CARBENICILLIN], the minimum inhibitory concentration (MIC) in the test on Escherichia coli [1] turned out to be 1 µg/mL (≈ 2.64 µM); in the test with Escherichia coli [2], 128 µg/mL (≈ 338 µM); with Escherichia coli [3] it was 64 µg/mL (≈ 169 µM); against Escherichia coli [8] it was 128 µg/mL (≈ 338 µM). For the same compound, the Activity in test [4] stood at 78; with Escherichia coli [5], 146; in test [6], 15.

For `CO/N=C(\C(=O)N[C@@H]1C(=O)N2C(C(=O)O)=C(COC(C)=O)CS[C@H]12)c1csc(N)n1` [CEFOTAXIME], the MIC is ≤ 0.12 µg/mL against Escherichia coli [1], ≤ 0.12 µg/mL against Escherichia coli [2], 4 µg/mL (≈ 8.78 µM) in the test with Escherichia coli [3] and 8 µg/mL (≈ 17.6 µM) in the test on Escherichia coli [8]. In addition, the Activity (in [4]; with Escherichia coli [5]; in test [6]) was < 1 throughout.

As to `CO[C@@]1(NC(=O)Cc2cccs2)C(=O)N2C(C(=O)O)=C(COC(N)=O)CS[C@@H]21` [CEFOXITIN], the MIC was 2 µg/mL (≈ 4.68 µM) in the test with Escherichia coli [1], 2 µg/mL (≈ 4.68 µM) in the test with Escherichia coli [2], 8 µg/mL (≈ 18.7 µM) in the test with Escherichia coli [3] and 8 µg/mL (≈ 18.7 µM) in the test on Escherichia coli [8].

Take `CC(C)(O/N=C(\C(=O)N[C@@H]1C(=O)N2C(C(=O)[O-])=C(C[n+]3ccccc3)CS[C@H]12)c1csc(N)n1)C(=O)O` [CEFTAZIDIME]: the MIC was ≤ 0.12 µg/mL against Escherichia coli [1], ≤ 0.12 µg/mL against Escherichia coli [2], 32 µg/mL (≈ 58.5 µM) with Escherichia coli [3] and 32 µg/mL (≈ 58.5 µM) against Escherichia coli [8]. Moreover, the Activity (in [4]; with Escherichia coli [5]; in test [6]) was < 1 throughout.

Take `CO/N=C(\C(=O)N[C@@H]1C(=O)N2C(C(=O)O)=C(COC(N)=O)CS[C@H]12)c1ccco1` [CEFUROXIME]: the MIC with Escherichia coli [1] came out at 1 µg/mL (≈ 2.36 µM); in the test with Escherichia coli [2], 1 µg/mL (≈ 2.36 µM); against Escherichia coli [3] it was 32 µg/mL (≈ 75.4 µM); against Escherichia coli [8], 32 µg/mL (≈ 75.4 µM).

Turning to `CC(=O)OCC1=C(C(=O)O)N2C(=O)[C@@H](NC(=O)Cc3cccs3)[C@H]2SC1` [CEPHALOTHIN], the MIC was 2 µg/mL (≈ 5.04 µM) with Escherichia coli [1], 8 µg/mL (≈ 20.2 µM) with Escherichia coli [2], ≥ 256 µg/mL with Escherichia coli [3] and ≥ 256 µg/mL in the test on Escherichia coli [8]. Further, the Activity in test [4] worked out at 3; with Escherichia coli [5], 6; in [6], 27.

`O=C(O)[C@H]1/C(=C/CO)O[C@@H]2CC(=O)N21` [CLAVULANIC ACID] had an Activity in [9] of 3 µM. For the same compound, in test [7], the IC50 came out at 100 nM.

Consider `C[C@@H](O)[C@H]1C(=O)N2C(C(=O)O)=C(SCCNC=N)C[C@H]12` [IMIPENEM ANHYDROUS], for which the MIC in the test with Escherichia coli [1] and in the test on Escherichia coli [2] was ≤ 0.12 µg/mL each time.

`CCN1CCN(C(=O)N[C@@H](C(=O)N[C@@H]2C(=O)N3[C@@H]2SC(C)(C)[C@@H]3C(=O)O)c2ccccc2)C(=O)C1=O` [PIPERACILLIN]: the MIC in the test with Escherichia coli [1] is 2 µg/mL (≈ 3.86 µM); against Escherichia coli [2], 32 µg/mL (≈ 61.8 µM); against Escherichia coli [3] it was 64 µg/mL (≈ 124 µM); against Escherichia coli [8] it was 128 µg/mL (≈ 247 µM).

As to `C[C@]1(Cn2ccnn2)[C@H](C(=O)O)N2C(=O)C[C@H]2S1(=O)=O` [TAZOBACTAM], in test [7], the IC50 amounted to 80 nM.

In the case of `CC1(C)S[C@@H]2[C@H](NC(=O)[C@H](C(=O)O)c3ccsc3)C(=O)N2[C@H]1C(=O)O` [TICARCILLIN], the MIC is 2 µg/mL (≈ 5.2 µM) against Escherichia coli [1], ≥ 256 µg/mL in the test on Escherichia coli [2], ≥ 256 µg/mL against Escherichia coli [3] and ≥ 256 µg/mL in the test on Escherichia coli [8].
